Where two headings read alike, the source gives them in different places.
System: bloodstream form T. b. brucei parasites
Assay: Resazurin-based anti-trypanosomal assay on bloodstream form T. b. brucei parasites
Type: cell-based, Trypanosoma brucei brucei
Method: Bloodstream form T. b. brucei Lister 927 variant 221 strain parasites were cultured in filter sterilized complete Iscoves Modified Dulbeccos Media (IMDM) based HM1-9 medium (IMDM base powder, […] sodium bicarbonate, 1 mM hypoxanthine, 1 mM sodium pyruvate, 0.16 mM thymidine, 0.05 mM bathocuprone sulphate acid, 10% (v/v) heat inactivated foetal bovine serum, 1.5 mM L-cysteine, 0.2 mM β-mercaptoethanol, pH 7.5) in a humidified chamber at 37 °C with an atmosphere of 5% CO2. Parasite growth was monitored using a Neubauer haemocytometer to count the cell number, after which cells were diluted, according to their density, in the described pre-warmed media.
All compounds of interest were resuspended to stocks of 30 mM in DMSO and stored at −80 °C prior to use in in vitro experiments. For assessment of anti-trypanosomal activity, compounds were added to in vitro cultures of bloodstream form T. b. brucei parasites (1 × 10^5 cells/mL) in 96-well plates at a fixed concentration of 20 μM. After an incubation period of 48 h, the number of parasites surviving drug exposure were determined using a resazurin-based cytotoxicity assay. Resazurin is an oxidation–reduction sensitive dye that is reduced by living cells to resorufin. Resorufin is a fluorophore (Excitation560/Emission590) and thus was quantified in a multi-well fluorescence plate reader. Results are expressed as % parasite viability—the resorufin fluorescence in small molecule-treated wells relative to untreated controls. Assessment of each small molecule was conducted in duplicate, with error bars representing standard deviation (SD). […] The compounds were added to in vitro cultures of bloodstream form T. b. brucei parasites (1 × 10^5 cells/mL) in 96-well plates in a 3-fold dilution series with 100 μM as the highest concentration. After an incubation period of 48 h, the number of parasites surviving drug exposure were determined as previously mentioned. The % parasite viability was determined as previously mentioned. The IC50 (the concentration of compound required to decrease cell viability of T. b. brucei parasites by 50% compared to those grown in the absence of the compound) values for each of the compounds were determined from a dose–response curve by non-linear regression generated using GraphPad Prism® (v. 7.0; San Diego, CA, USA) software. For comparative purposes, pentamidine at a fixed concentration of 1 μM was employed as a drug standard.

[1] = Trypanosoma brucei, Table 1, T. b. brucei parasites cultured in vitro, 48 h, dose-response, read-out: IC50/μM
[2] = Trypanosoma brucei, Table S1, 48 select compounds, T. b. brucei, 48 h, read-out: IC50/

Work on N=C(N)c1ccc(OCCCCCOc2ccc(C(=N)N)cc2)cc1 [pentamidine, reference compound] yielded an IC50 (Trypanosoma brucei, T. b. brucei parasites cultured in vitro, positive control, read-out: IC50 of drug standard) of 0.0053 µM.

CC(C)=CCC/C(C)=C/CCC(C)=CCn1cc2c(=O)ncn(CC=C(C)CC/C=C(\C)CCC=C(C)C)c2n1 [Compound 48, 2,7-bis((6E)-3,7,11-trimethyldodeca-2,6,10-trien-1-yl)-2,7-dihydro-4H-pyrazolo[3,4-d]pyrimidin-4-one] showed an IC50 (Trypanosoma brucei, T. b. brucei parasites, stated as bound, read-out: IC50 values) of less than 7 µM, an IC50 [1] of 5.5 µM and an IC50 [2] of 5.47 µM.

For CC(C)=CCC/C(C)=C/CC/C(C)=C/CC/C(C)=C/Cn1ccnc1 [Compound 72, 1-((2E,6E,10E)-3,7,11,15-Tetramethylhexadeca-2,6,10,14-tetraen-1-yl)-1H-imidazole], the IC50 [1] was 3.4 µM and the IC50 [2] was 3.42 µM.

For CC(C)=CCC/C(C)=C/CCC(C)=CCN1C(=O)c2ccccc2C1=O [Compound 68, 2-((6E)-3,7,11-Trimethyldodeca-2,6,10-trien-1-yl)isoindoline-1,3-dione], the IC50 [1] was 32.2 µM and the IC50 [2] was 32.2 µM.

Molecule CC(C)=CCC/C(C)=C/Cn1cnc2ncnc(Cl)c21 [Compound 16, (E)-6-chloro-7-(3,7-dimethylocta-2,6-dien-1-yl)-7H-purine] has an IC50 [1] of 11 µM and an IC50 [2] of 11 µM.

Molecule “6-chloro-7-((2E,6E)-3,7,11-trimethyldodeca-2,6,10-trien-1-yl)-9H-purine [Compound 18]” has an IC50 (Table 1, T. b. brucei parasites cultured in vitro, 48 h, dose-response, read-out: IC50/μM) of 9.3 µM and an IC50 (Table S1, 48 select compounds, T. b. brucei, 48 h, read-out: IC50/) of 9.28 µM.

CC(C)=CCC/C(C)=C/CC/C(C)=C/CC/C(C)=C/CNC=O [Compound 77, N-((2E,6E,10E)-3,7,11,15-tetramethylhexadeca-2,6,10,14-tetraen-1-yl)formamide] was tested, and the IC50 [1] was 41.8 µM and the IC50 [2] was 41.8 µM.

With CC(C)=CCC/C(C)=C/CC/C(C)=C\Cn1cnc2c1c(=O)[nH]c(=O)n2C [Compound 30, 3-Methyl-7-((2Z,6E)-3,7,11-trimethyldodeca-2,6,10-trien-1-yl)-3,7-dihydro-1H-purine-2,6-dione] the IC50 [1] was 4.6 µM and the IC50 [2] was 4.62 µM.

Molecule CC(C)=CCC/C(C)=C/Cn1cnc2c1c(=O)[nH]c(=O)n2C [Compound 29, (E)-7-(3,7-Dimethylocta-2,6-dien-1-yl)-3-methyl-3,7-dihydro-1H-purine-2,6-dione] has an IC50 [1] of 18.9 µM and an IC50 [2] of 18.9 µM.

Molecule CC(C)=CCC/C(C)=C/CC/C(C)=C/CC/C(C)=C/Cn1cnc2c1c(=O)n(C)c(=O)n2C [Compound 37, 1,3-dimethyl-7-((2E,6E,10E)-3,7,11,15-tetramethylhexadeca-2,6,10,14-tetraen-1-yl)-3,7-dihydro-1H-purine-2,6-dione] has an IC50 [1] of 21.6 µM.

With CC(C)=CCC/C(C)=C/CCC(C)=CCn1cnc2c(Cl)ncnc21 [Compound 17, 6-Chloro-9-((6E)-3,7,11-trimethyldodeca-2,6,10-trien-1-yl)-9H-purine] the IC50 [1] was 12.9 µM and the IC50 [2] was 12.9 µM.

CC(C)=CCC/C(C)=C/CCC(C)=CCn1ccc(=O)[nH]c1=O [Compound 55, 1-((6E)-3,7,11-Trimethyldodeca-2,6,10-trien-1-yl)pyrimidine-2,4(1H,3H)-dione] gave an IC50 [1] of 16.5 µM and an IC50 [2] of 16.5 µM.

In the case of CC(=O)NC/C=C(/C)CC/C=C(\C)CCC=C(C)C [Compound 82, N-((2Z,6E)-3,7,11-Trimethyldodeca-2,6,10-trien-1-yl)acetamide], the IC50 [1] is reported as 4.5 µM and the IC50 [2] is reported as 4.49 µM.

CC(C)=CCC/C(C)=C/CCC(C)=CCn1c(=O)[nH]c2c(=O)n(C)c(=O)n(C)c21 [Compound 44, 1,3-dimethyl-9-((6E)-3,7,11-trimethyldodeca-2,6,10-trien-1-yl)-7,9-dihydro-1H-purine-2,6,8(3H)-trione] was tested, and the IC50 [1] was 16.6 µM and the IC50 [2] was 16.6 µM.

Work on CC(C)=CCC/C(C)=C/CC/C(C)=C/Cn1cnc2nncc-2c1O [Compound 49, 5-((2E,6E)-3,7,11-trimethyldodeca-2,6,10-trien-1-yl)-5H-pyrazolo[3,4-d]pyrimidin-4-ol] yielded an IC50 [1] of 16.7 µM and an IC50 [2] of 16.7 µM.

For CC(=O)NC/C=C(/C)CC/C=C(\C)CC/C=C(\C)CCC=C(C)C [Compound 84, N-((2Z,6E,10E)-3,7,11,15-Tetramethylhexadeca-2,6,10,14-tetraen-1-yl)acetamide], the IC50 [1] was 2.2 µM and the IC50 [2] was 2.17 µM.

— PMC7074166, “Screening for Small Molecule Modulators of Trypanosoma brucei Hsp70 Chaperone Activity Based upon Alcyonarian Coral-Derived Natural Products” (Marine Drugs, 2020)
